≈ marks a conversion by molar mass, not a printed value.
How the values were obtained:
Trichosporon beigelii [1] = test: Antifungal activity against Trichosporon beigelii KCTC 7707 after 12 to 18 hrs by ELISA; type: functional
Candida albicans [2] = test: Antifungal activity against Candida albicans ATCC10231 at 50 ug/ml relative to control; type: functional; conditions: ATCC 10231
Trichophyton rubrum [3] = test: Antifungal activity against Trichophyton rubrum KCTC 6345 after 12 to 18 hrs by ELISA; type: functional
Candida albicans [4] = test: Antifungal activity against Candida albicans ATCC10231; type: functional; conditions: ATCC 10231
Malassezia furfur [5] = test: Antifungal activity against Malassezia furfur KCTC 7744 after 12 to 18 hrs by ELISA; type: functional
Candida albicans [6] = test: Antifungal activity against Candida albicans ATCC 90028 after 12 to 18 hrs by ELISA; type: functional
Candida parapsilosis [7] = test: Antifungal activity against Candida parapsilosis ATCC 22019 after 12 to 18 hrs by ELISA; type: functional; conditions: Lodderomyces parapsilosis
Cryptococcus neoformans [8] = test: Synergistic antifungal activity against FLC-resistant Cryptococcus neoformans 32609 after 24 to 72 hrs by checkerboard microbroth dilution method; type: functional
Pichia kudriavzevii [9] = test: Synergistic antifungal activity against FLC-resistant Candida krusei ATCC2340 after 24 to 72 hrs in presence of FLC by checkerboard microbroth dilution method; type: functional
Candida tropicalis [10] = test: Synergistic antifungal activity against FLC-resistant Candida tropicalis 2718 after 24 to 72 hrs in presence of FLC by checkerboard microbroth dilution method; type: functional
Candida albicans [11] = test: Synergistic antifungal activity against FLC-resistant Candida albicans after 24 to 72 hrs in presence of FLC by checkerboard microbroth dilution method; type: functional
Candida parapsilosis [12] = test: Synergistic antifungal activity against FLC-resistant Candida parapsilosis ATCC 22019 after 24 to 72 hrs in presence of FLC by checkerboard microbroth dilution method; type: functional; conditions: Lodderomyces parapsilosis
Pichia kudriavzevii [13] = test: Synergistic antifungal activity against FLC-resistant Candida krusei ATCC2340 after 24 to 72 hrs by checkerboard microbroth dilution method; type: functional
Candida albicans [14] = test: Synergistic antifungal activity against FLC-resistant Candida albicans after 24 to 72 hrs by checkerboard microbroth dilution method; type: functional
Candida parapsilosis [15] = test: Synergistic antifungal activity against FLC-resistant Candida parapsilosis ATCC 22019 after 24 to 72 hrs by checkerboard microbroth dilution method; type: functional; conditions: Lodderomyces parapsilosis
Nakaseomyces glabratus [16] = test: Synergistic antifungal activity against FLC-resistant Candida glabrata ATCC1182 after 24 to 72 hrs in presence of FLC by checkerboard microbroth dilution method; type: functional
Cryptococcus neoformans [17] = test: Synergistic antifungal activity against FLC-resistant Cryptococcus neoformans 32609 after 24 to 72 hrs in presence of FLC by checkerboard microbroth dilution method; type: functional
Nakaseomyces glabratus [18] = test: Synergistic antifungal activity against FLC-resistant Candida glabrata ATCC1182 after 24 to 72 hrs by checkerboard microbroth dilution method; type: functional
Candida tropicalis [19] = test: Synergistic antifungal activity against FLC-resistant Candida tropicalis 2718 after 24 to 72 hrs by checkerboard microbroth dilution method; type: functional
Candida albicans [20] = test: Antifungal activity against Candida albicans after 24 hrs by broth dilution method; type: functional
Aspergillus fumigatus = test: Antifungal activity against Aspergillus fumigatus after 24 hrs by broth dilution method; type: functional
Malassezia furfur [21] = test: Antifungal activity against Malassezia furfur KCTC 7744 by ELISA; type: functional
Trichophyton rubrum [22] = test: Antifungal activity against Trichophyton rubrum KCTC 6345 by ELISA; type: functional
Candida parapsilosis [23] = test: Antifungal activity against Candida parapsilosis ATCC 22019 by ELISA; type: functional; conditions: Lodderomyces parapsilosis
Trichosporon beigelii [24] = test: Antifungal activity against Trichosporon beigelii KCTC 7707 by ELISA; type: functional
Candida albicans [25] = test: Antifungal activity against Candida albicans ATCC 90028 by ELISA; type: functional
Cryptococcus neoformans [26] = test: Antifungal activity against Cryptococcus neoformans ATCC 90112 after 48 hrs in presence of AmB by CLSI-based method; type: functional; conditions: ATCC 90112, 48 h
Cryptococcus neoformans [27] = test: Antifungal activity against Cryptococcus neoformans ATCC 90112 after 48 hrs by CLSI-based method; type: functional; conditions: ATCC 90112, 48 h
[28] = Inhibition of fatty acid synthase in Trichophyton rubrum deltaTruMDR2
Trichophyton rubrum [29] = test: Antifungal activity against Trichophyton rubrum ATCC MYA3108 by CLSI-based microdilution method; type: functional
[30] = Inhibition of fatty acid synthase in Trichophyton rubrum ATCC MYA3108
Trichophyton rubrum [31] = test: Antifungal activity against Trichophyton rubrum deltaTruMDR2 by CLSI-based microdilution method; type: functional
Clavispora lusitaniae [32] = test: Antifungal activity against FLC-resistant Candida lusitaniae DSM 70102; type: functional
Kluyveromyces marxianus [33] = test: Fungicidal activity against FLC-resistant Candida pseudotropicalis KKP 324; type: functional
Kluyveromyces marxianus [34] = test: Antifungal activity against FLC-resistant Candida pseudotropicalis KKP 324; type: functional
Candida dubliniensis [35] = test: Fungicidal activity against FLC-resistant Candida dubliniensis CBS 7987; type: functional
Candida albicans [36] = test: Fungicidal activity against FLC-resistant Candida stellatoidea CBS 1905; type: functional
Candida albicans [37] = test: Antifungal activity against FLC-resistant Candida albicans ATCC 10231; type: functional
Candida dubliniensis [38] = test: Antifungal activity against FLC-resistant Candida dubliniensis CBS 7987; type: functional
Yarrowia lipolytica [39] = test: Fungicidal activity against FLC-resistant Candida lipolytica KKP 332; type: functional
Yarrowia lipolytica [40] = test: Antifungal activity against FLC-resistant Candida lipolytica KKP 332; type: functional
[41] = Fungicidal activity against FLC-resistant Candida arborea KKP 319; type: functional
Nakaseomyces glabratus [42] = test: Antifungal activity against FLC-resistant Candida glabrata DSM 11226; type: functional
[43] = test system: Meyerozyma guilliermondii; test: Fungicidal activity against FLC-resistant Candida guilliermondii DSM 11947; type: functional
Candida albicans [44] = test: Antifungal activity against FLC-resistant Candida stellatoidea CBS 1905; type: functional
Pichia kudriavzevii [45] = test: Fungicidal activity against FLC-resistant Candida krusei DSM 6128; type: functional
Candida tropicalis [46] = test: Antifungal activity against FLC-resistant Candida tropicalis KKP 334; type: functional
Pichia kudriavzevii [47] = test: Antifungal activity against FLC-resistant Candida krusei DSM 6128; type: functional
[48] = test system: Meyerozyma guilliermondii; test: Antifungal activity against FLC-resistant Candida guilliermondii DSM 11947; type: functional
Candida tropicalis [49] = test: Fungicidal activity against FLC-resistant Candida tropicalis KKP 334; type: functional
Nakaseomyces glabratus [50] = test: Fungicidal activity against FLC-resistant Candida glabrata DSM 11226; type: functional
Candida albicans [51] = test: Fungicidal activity against FLC-resistant Candida albicans ATCC 10231; type: functional
[52] = Antifungal activity against FLC-resistant Candida arborea KKP 319; type: functional
Candida parapsilosis [53] = test: Antifungal activity against FLC-resistant Candida parapsilosis DSM 5784; type: functional; conditions: Lodderomyces parapsilosis
Candida parapsilosis [54] = test: Fungicidal activity against FLC-resistant Candida parapsilosis DSM 5784; type: functional; conditions: Lodderomyces parapsilosis
Clavispora lusitaniae [55] = test: Fungicidal activity against FLC-resistant Candida lusitaniae DSM 70102; type: functional

## O=c1cc(-c2ccc(O)cc2)oc2cc(O)cc(O)c12 [APIGENIN]
Trichosporon beigelii [1]
  MIC: 5 µg/mL (≈ 18.5 µM)
Candida albicans [2]
  inhibition at 50 µg/mL: 99.8%
Trichophyton rubrum [3]
  MIC: 5 µg/mL (≈ 18.5 µM)
Candida albicans [4]
  MIC: 125 µg/mL (≈ 463 µM)
Malassezia furfur [5]
  MIC: 5 µg/mL (≈ 18.5 µM)
Candida albicans [6]
  MIC: 5 µg/mL (≈ 18.5 µM)
Candida parapsilosis [7]
  MIC: 5 µg/mL (≈ 18.5 µM)

## CC1(C)C=Cc2c(ccc3c2OC[C@@H](c2ccc(O)cc2O)C3)O1 [GLABRIDIN]
Cryptococcus neoformans [8]
  MIC: 16 µg/mL
Pichia kudriavzevii [9]
  MIC: 1 to 16 µg/mL
Candida tropicalis [10]
  MIC: 1 to 16 µg/mL
Candida albicans [11]
  MIC: 64 µg/mL
Candida parapsilosis [12]
  MIC: 1 to 16 µg/mL
Pichia kudriavzevii [13]
  MIC: 16 to 64 µg/mL
Candida albicans [14]
  MIC: 32 µg/mL
Candida parapsilosis [15]
  MIC: 64 µg/mL
Nakaseomyces glabratus [16]
  MIC: 1 to 16 µg/mL
Cryptococcus neoformans [17]
  MIC: 16 to 64 µg/mL
Nakaseomyces glabratus [18]
  MIC: 64 µg/mL
Candida tropicalis [19]
  MIC: 64 µg/mL

## Cc1cc(O)c(C(=O)/C=C/c2coc3ccccc3c2=O)c(=O)o1
Candida albicans [20]
  MIC: 12.5 µg/mL (≈ 38.5 µM)
Aspergillus fumigatus
  MFC: 50 µg/mL (≈ 154 µM)

## O=c1c(O[C@@H]2O[C@H](CO)[C@@H](O)[C@H](O)[C@H]2O)c(-c2ccc(O)c(O)c2)oc2cc(O)cc(O)c12 [ISOQUERCETIN]
Malassezia furfur [21]
  MIC: 2.5 to 5 µg/mL (≈ 5.38 to 10.8 µM)
Trichophyton rubrum [22]
  MIC: 2.5 µg/mL (≈ 5.38 µM)
Candida parapsilosis [23]
  MIC: 2.5 µg/mL (≈ 5.38 µM)
Trichosporon beigelii [24]
  MIC: 5 µg/mL (≈ 10.8 µM)
Candida albicans [25]
  MIC: 2.5 µg/mL (≈ 5.38 µM)

## COc1cc2oc(-c3ccc(O)c(O)c3)cc(=O)c2c(O)c1O
Cryptococcus neoformans [26]
  MIC: 1 µg/mL
Cryptococcus neoformans [27]
  MIC: 3.9 µg/mL (≈ 12.3 µM)

## O=C(/C=C/c1ccccc1)c1ccccc1 [CHALCONE]
[28]
  IC50: 17.1 µg/mL (≈ 82.1 µM)
Trichophyton rubrum [29]
  MIC: 7.5 µg/mL (≈ 36 µM)
[30]
  IC50: 68.23 µg/mL (≈ 328 µM)
Trichophyton rubrum [31]
  MIC: 1.9 µg/mL (≈ 9.12 µM)

## COc1ccc2oc(=O)sc2c1C(=O)/C=C/c1ccc(OCCN(C)C)cc1
Clavispora lusitaniae [32]
  MIC: 1 to 16 µg/mL (≈ 2.5 to 40.1 µM)
Kluyveromyces marxianus [33]
  MIC: 8 to 32 µg/mL (≈ 20 to 80.1 µM)
Kluyveromyces marxianus [34]
  MIC: 1 to 16 µg/mL (≈ 2.5 to 40.1 µM)
Candida dubliniensis [35]
  MIC: 8 to 32 µg/mL (≈ 20 to 80.1 µM)
Candida albicans [36]
  MIC: 8 to 32 µg/mL (≈ 20 to 80.1 µM)
Candida albicans [37]
  MIC: 1 to 16 µg/mL (≈ 2.5 to 40.1 µM)
Candida dubliniensis [38]
  MIC: 1 to 16 µg/mL (≈ 2.5 to 40.1 µM)
Yarrowia lipolytica [39]
  MIC: 8 to 32 µg/mL (≈ 20 to 80.1 µM)
Yarrowia lipolytica [40]
  MIC: 1 to 16 µg/mL (≈ 2.5 to 40.1 µM)
[41]
  MIC: 8 to 32 µg/mL (≈ 20 to 80.1 µM)
Nakaseomyces glabratus [42]
  MIC: 1 to 16 µg/mL (≈ 2.5 to 40.1 µM)
[43]
  MIC: 8 to 32 µg/mL (≈ 20 to 80.1 µM)
Candida albicans [44]
  MIC: 1 to 16 µg/mL (≈ 2.5 to 40.1 µM)
Pichia kudriavzevii [45]
  MIC: 8 to 32 µg/mL (≈ 20 to 80.1 µM)
Candida tropicalis [46]
  MIC: 1 to 16 µg/mL (≈ 2.5 to 40.1 µM)
Pichia kudriavzevii [47]
  MIC: 1 to 16 µg/mL (≈ 2.5 to 40.1 µM)
[48]
  MIC: 1 to 16 µg/mL (≈ 2.5 to 40.1 µM)
Candida tropicalis [49]
  MIC: 8 to 32 µg/mL (≈ 20 to 80.1 µM)
Nakaseomyces glabratus [50]
  MIC: 8 to 32 µg/mL (≈ 20 to 80.1 µM)
Candida albicans [51]
  MIC: 8 to 32 µg/mL (≈ 20 to 80.1 µM)
[52]
  MIC: 1 to 16 µg/mL (≈ 2.5 to 40.1 µM)
Candida parapsilosis [53]
  MIC: 1 to 16 µg/mL (≈ 2.5 to 40.1 µM)
Candida parapsilosis [54]
  MIC: 8 to 32 µg/mL (≈ 20 to 80.1 µM)
Clavispora lusitaniae [55]
  MIC: 8 to 32 µg/mL (≈ 20 to 80.1 µM)

From ChEMBL document CHEMBL4311957, “Recent advances in natural antifungal flavonoids and their derivatives” (Bioorg Med Chem Lett, 2019)
